# Measurements taken from ChEMBL document CHEMBL1201862, “PubChem BioAssay data set” (2004).
# Active and inactive are the calls of the source.
# Experiments:
# [1] = target: G-protein coupled receptor 55 (Homo sapiens, UniProt Q9Y2T6); assay: GPR55 antagonists blocking LPI-driven arrestin recruitment, primary screen, imaging, U2OS, beta-arrestin-GFP, LPI agonist (AID 2013); assay type: functional;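 further: antagonist potency measured as reduced agonist-driven arrestin aggregation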
# [2] = inhibitors of clade B AD8 Env fusion, dose response, cell-based, cherry-pick (AID 652062); assay type: functional;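 further: luciferase signal from cell-cell fusion driven by HIV-1 clade B AD8 Env; potency is for inhibitors of fusion seen as a drop in luminescence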
# [3] = off-target signal loss in HeLa-CEM21 co-culture – HeLa F-luc CTL cells, cherry-picked, counter-screen for HIV-1 Env fusion inhibitor project, dose response (AID 652040); assay type: functional, cell-based;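 further: potency for signal decrease marking cytotoxic or nonspecific inhibition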
# [4] = inhibitors of HIV Env-driven cell fusion, dose response, cherry-pick (AID 652057); assay type: functional, cell-based
# [5] = CEM21 lymphoblast cell cytotoxicity, dose response, cytotoxicity control for viral fusion inhibitor project, CellTiter-Glo luminescence, cherry-picked (AID 652042); assay type: functional, cell-based;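 further: potency for signal decrease meaning cytotoxicity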
# [6] = tested on: Streptococcus sp. 'group A'; assay: growth inhibition of control SK(-) GAS strain, dose response, counter-screen for streptokinase expression inhibitor project, luminescence, kanamycin, BacTiterGlo, confirmation (AID 1900); assay type: functional, organism-based
# [7] = target: T1, Heat shock factor protein 1 (Mus musculus, UniProt P38532); assay: inhibition of MG132-induced HSE-luciferase signal, confirmation, cell-based, NIH3T3, luminescence, dose retest (AID 2382); assay type: functional;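 further: NIH3T3 fibroblasts with HSF1-driven luciferase reporter stressed by proteasome inhibitor MG132; luminescence from HSF1-driven luciferase expression after 8 hours of MG132 stress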
# T1 sequence (P38532 whole entry): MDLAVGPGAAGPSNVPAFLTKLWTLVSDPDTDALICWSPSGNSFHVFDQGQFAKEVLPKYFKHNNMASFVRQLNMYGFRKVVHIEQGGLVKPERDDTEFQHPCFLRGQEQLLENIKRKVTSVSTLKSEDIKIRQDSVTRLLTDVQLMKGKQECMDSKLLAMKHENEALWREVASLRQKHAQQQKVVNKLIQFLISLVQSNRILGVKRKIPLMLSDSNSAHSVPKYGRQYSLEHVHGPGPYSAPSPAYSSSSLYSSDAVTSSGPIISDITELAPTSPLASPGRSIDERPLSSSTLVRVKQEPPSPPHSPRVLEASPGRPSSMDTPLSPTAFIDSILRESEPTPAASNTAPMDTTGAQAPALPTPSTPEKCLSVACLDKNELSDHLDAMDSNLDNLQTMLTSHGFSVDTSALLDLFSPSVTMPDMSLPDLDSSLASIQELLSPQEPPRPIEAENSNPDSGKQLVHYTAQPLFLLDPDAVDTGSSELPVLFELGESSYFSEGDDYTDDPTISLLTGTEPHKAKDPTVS
# Streptococcus = assay: Group A Streptococcus viability loss, dose response, counter-screen for streptokinase expression inhibitor project, luminescence, BacTiterGlo (AID 1915); assay type: functional, organism-based;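 further: potency for reduction of bacterial viability or growth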
# [8] = Luminescence Cell-Based Dose Retest to Confirm Inhibitors of Cancer Stem Cells. [Related pubchem assays (depositor defined):AID2717, AID2721]; assay type: functional; details: Homo sapiens
# [9] = target: G-protein coupled receptor 35 (Homo sapiens, UniProt Q9HC97); assay: GPR35 antagonists blocking zaprinast-driven arrestin recruitment, primary screen, imaging, U2OS, beta-arrestin-GFP, zaprinast agonist (AID 2058); assay type: functional;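 further: antagonist potency meaning inhibition of agonist-induced arrestin redistribution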
# [10] = CRF-BP/CRF-R2 complex antagonists, dose response, cell-based, uHTS hits, 384-well (AID 651639); assay type: functional, Homo sapiens; details: read-out: IC50_Mean
# HEK293 [11] = assay: cells; assay type: functional, cell-based; details: Homo sapiens
# HEK293 [12] = assay: cells; assay type: functional, cell-based; details: Homo sapiens; remark: listed apart in the source
# HEK293 [13] = assay: NOD1 signaling inhibitors, primary screen, cell-based, luminescence, uHTS (AID 1578); assay type: functional; details: Homo sapiens
# HEK293 [14] = assay: NOD2 signaling inhibitors in MDP-stimulated cells, cell-based, uHTS, luminescence (AID 2001); assay type: functional; details: Homo sapiens
# Mucolipin-3 = target: T2, Mucolipin-3 (Homo sapiens, UniProt Q8TDD5); assay: Fluorescence counterscreen assay for […] agonists: dose response cell-based high-throughput screening assay to identify agonists of the transient receptor potential channel ML3 (TRPML3). [Related pubchem assays: 1424, 1448 ]; assay type: functional
# T2 sequence (Q8TDD5 whole entry): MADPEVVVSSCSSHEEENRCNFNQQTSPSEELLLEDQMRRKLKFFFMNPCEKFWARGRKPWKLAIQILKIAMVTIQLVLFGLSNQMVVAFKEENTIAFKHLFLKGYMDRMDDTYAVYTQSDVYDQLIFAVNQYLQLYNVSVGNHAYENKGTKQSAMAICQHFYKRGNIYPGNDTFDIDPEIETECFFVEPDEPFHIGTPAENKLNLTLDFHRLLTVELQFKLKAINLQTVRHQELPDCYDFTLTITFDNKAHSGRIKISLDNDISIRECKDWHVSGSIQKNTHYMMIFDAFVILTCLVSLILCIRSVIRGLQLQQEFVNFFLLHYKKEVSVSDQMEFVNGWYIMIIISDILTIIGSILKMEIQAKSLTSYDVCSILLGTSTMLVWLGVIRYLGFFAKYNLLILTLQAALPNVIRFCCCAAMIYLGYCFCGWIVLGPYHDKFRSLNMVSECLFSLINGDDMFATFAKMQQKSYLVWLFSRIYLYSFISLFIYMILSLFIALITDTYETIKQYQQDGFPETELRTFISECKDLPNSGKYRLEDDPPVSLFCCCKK
# [15] = target: Nucleotide-binding oligomerization domain-containing protein 2 (Homo sapiens, UniProt Q9HC29); assay: NOD2 signaling inhibitors, cell-based, luminescence, uHTS, HEK293 (AID 1566); assay type: functional
# Ion channel NompC = Ion channel NompC (Danio rerio, UniProt Q7T1G6); assay: Dose response cell-based high-throughput screening assay for agonists of the transient receptor potential channel N1 (TRPN1). [Related pubchem assays (depositor defined):AID1424, AID1448]; assay type: functional
# HEK293 [16] = assay: cells; assay type: functional, cell-based; details: Homo sapiens; remark: listed apart in the source
# [17] = target: T3, Corticotropin-releasing factor receptor 2/Corticotropin-releasing factor-binding protein (Homo sapiens, UniProt P24387+Q13324); assay: Dose Response confirmation of uHTS hits for small molecule antagonists of the CRF-binding protein and CRF-R2 receptor complex.; assay type: functional; details: read-out: IC50_Mean
# T3 sequence (Q13324 whole entry): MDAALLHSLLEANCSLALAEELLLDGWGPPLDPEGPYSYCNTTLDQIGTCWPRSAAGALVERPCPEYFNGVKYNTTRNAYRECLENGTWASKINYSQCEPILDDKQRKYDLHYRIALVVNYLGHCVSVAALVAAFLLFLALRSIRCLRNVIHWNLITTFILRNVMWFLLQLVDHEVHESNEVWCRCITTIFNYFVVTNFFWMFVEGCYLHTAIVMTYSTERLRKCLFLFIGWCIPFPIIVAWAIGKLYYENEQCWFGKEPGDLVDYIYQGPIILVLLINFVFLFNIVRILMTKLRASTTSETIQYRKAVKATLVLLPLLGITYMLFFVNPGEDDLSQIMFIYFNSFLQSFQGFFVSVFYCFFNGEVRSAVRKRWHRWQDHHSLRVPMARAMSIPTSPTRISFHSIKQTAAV
# T3 sequence (P24387 whole entry): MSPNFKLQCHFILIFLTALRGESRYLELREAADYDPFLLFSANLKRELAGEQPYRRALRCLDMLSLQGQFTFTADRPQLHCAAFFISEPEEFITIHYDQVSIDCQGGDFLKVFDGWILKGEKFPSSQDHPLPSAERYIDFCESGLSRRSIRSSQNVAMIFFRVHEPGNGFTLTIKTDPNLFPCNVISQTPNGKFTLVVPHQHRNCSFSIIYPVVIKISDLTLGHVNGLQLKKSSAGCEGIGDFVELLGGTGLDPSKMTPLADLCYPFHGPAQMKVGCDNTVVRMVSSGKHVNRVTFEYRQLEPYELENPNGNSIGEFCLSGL
# [18] = target: T3, Corticotropin-releasing factor receptor 2/Corticotropin-releasing factor-binding protein; assay: activators of CRF receptor 2 with binding protein – uHTS hits, confirmation (AID 602473); assay type: functional; details: read-out: EC50_Mean
# [19] = target: DNA dC->dU-editing enzyme APOBEC-3A (Homo sapiens, UniProt P31941); assay: APOBEC3A DNA deaminase inhibitors, dose response, biochemical (AID 504722); assay type: functional
# [20] = target: DNA dC->dU-editing enzyme APOBEC-3G (Homo sapiens, UniProt Q9HC16); assay: Dose Response confirmation of small molecule APOBEC3G DNA Deaminase Inhibitors via a fluorescence-based single-stranded DNA deaminase assay. [Related pubchem assays (depositor defined):AID493012, AID493028]; assay type: functional
# [21] = target: T4, Histone-lysine N-methyltransferase NSD2 (Homo sapiens, UniProt O96028); assay type: biochemical
# T4 sequence (O96028 whole entry): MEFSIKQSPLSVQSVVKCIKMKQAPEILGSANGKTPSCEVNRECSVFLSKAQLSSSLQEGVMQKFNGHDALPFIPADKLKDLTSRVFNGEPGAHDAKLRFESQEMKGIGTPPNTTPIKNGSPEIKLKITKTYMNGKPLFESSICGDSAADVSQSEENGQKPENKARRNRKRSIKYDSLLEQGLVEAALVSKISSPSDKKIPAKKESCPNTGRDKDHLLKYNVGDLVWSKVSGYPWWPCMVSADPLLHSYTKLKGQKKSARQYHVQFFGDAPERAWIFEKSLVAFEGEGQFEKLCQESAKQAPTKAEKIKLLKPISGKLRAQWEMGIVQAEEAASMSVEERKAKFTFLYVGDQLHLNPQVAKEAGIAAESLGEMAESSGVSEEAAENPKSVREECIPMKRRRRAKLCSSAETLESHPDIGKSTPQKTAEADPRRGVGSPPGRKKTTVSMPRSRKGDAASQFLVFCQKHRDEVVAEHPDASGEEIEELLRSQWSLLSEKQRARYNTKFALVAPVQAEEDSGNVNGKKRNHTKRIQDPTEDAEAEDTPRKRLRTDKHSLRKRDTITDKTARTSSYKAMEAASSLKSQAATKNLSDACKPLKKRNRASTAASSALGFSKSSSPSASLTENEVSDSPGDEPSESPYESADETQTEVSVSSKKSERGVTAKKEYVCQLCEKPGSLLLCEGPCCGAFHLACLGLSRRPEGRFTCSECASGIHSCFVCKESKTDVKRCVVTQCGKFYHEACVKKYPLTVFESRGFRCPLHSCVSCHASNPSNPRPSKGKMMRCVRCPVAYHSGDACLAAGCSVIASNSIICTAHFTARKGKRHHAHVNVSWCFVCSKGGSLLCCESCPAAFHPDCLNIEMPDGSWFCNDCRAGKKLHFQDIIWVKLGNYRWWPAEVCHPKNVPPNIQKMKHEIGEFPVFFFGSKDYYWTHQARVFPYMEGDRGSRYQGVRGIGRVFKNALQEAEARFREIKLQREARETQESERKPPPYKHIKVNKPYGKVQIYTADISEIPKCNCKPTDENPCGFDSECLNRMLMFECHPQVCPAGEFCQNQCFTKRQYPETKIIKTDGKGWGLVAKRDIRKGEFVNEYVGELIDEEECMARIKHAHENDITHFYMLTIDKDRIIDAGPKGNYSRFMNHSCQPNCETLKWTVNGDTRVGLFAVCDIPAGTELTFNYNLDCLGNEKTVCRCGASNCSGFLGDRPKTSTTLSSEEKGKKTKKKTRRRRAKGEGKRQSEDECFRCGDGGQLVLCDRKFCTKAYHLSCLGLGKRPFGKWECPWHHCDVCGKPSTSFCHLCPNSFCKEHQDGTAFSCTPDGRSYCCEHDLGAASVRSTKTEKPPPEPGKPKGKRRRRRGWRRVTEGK
# HeLa = assay: HeLa cell cytotoxicity, dose response, cytotoxicity control, 24 h, cherry-picked samples (AID 504726); assay type: functional, cell-based; details: Homo sapiens;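 further: potency for cytotoxicity as loss of luminescence signal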
# Caspase-6 = Caspase-6 (Homo sapiens, UniProt P55212); assay: human caspase-6 inhibitors, dose response, biochemical, VEID-R110 fluorescence, cherry-pick (AID 720632)
# Sequence of Caspase-6 (P55212 24-179 limits assumed): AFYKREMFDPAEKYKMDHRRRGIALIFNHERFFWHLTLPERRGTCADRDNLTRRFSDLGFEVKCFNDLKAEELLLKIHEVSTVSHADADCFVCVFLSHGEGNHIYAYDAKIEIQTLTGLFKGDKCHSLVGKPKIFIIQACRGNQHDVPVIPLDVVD
# Sequence of Caspase-6 (P55212 194-293 limits assumed): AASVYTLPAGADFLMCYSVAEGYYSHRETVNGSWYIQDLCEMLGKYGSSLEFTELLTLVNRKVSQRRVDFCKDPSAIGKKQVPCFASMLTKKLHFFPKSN
# Sequence of DNA dC->dU-editing enzyme APOBEC-3A (P31941 whole entry): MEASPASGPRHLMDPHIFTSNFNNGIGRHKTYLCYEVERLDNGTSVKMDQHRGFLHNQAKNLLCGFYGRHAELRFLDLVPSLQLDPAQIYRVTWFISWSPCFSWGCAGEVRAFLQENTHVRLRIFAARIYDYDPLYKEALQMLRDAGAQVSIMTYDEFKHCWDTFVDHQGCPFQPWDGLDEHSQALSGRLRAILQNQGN
# Sequence of DNA dC->dU-editing enzyme APOBEC-3G (Q9HC16 whole entry): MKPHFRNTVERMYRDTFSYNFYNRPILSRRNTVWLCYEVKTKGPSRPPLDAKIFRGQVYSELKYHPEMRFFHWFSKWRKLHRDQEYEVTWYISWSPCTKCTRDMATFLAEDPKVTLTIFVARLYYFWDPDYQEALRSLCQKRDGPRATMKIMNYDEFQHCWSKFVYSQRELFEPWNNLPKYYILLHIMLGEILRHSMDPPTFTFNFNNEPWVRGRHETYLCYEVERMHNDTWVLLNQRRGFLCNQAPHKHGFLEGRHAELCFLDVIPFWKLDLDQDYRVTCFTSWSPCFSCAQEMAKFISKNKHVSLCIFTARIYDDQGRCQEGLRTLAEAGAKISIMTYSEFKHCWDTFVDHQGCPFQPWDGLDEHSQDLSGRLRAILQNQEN
# Sequence of G-protein coupled receptor 55 (Q9Y2T6 whole entry, the tested form may be a part): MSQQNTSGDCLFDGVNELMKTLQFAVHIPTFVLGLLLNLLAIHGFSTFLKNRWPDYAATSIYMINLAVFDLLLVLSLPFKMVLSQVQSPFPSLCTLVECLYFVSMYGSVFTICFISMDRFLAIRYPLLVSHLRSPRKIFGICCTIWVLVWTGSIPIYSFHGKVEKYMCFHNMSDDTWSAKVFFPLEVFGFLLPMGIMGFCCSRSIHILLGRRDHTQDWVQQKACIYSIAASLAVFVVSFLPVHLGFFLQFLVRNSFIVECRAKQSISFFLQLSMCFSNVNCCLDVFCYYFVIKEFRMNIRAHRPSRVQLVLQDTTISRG
# Sequence of G-protein coupled receptor 35 (Q9HC97 whole entry): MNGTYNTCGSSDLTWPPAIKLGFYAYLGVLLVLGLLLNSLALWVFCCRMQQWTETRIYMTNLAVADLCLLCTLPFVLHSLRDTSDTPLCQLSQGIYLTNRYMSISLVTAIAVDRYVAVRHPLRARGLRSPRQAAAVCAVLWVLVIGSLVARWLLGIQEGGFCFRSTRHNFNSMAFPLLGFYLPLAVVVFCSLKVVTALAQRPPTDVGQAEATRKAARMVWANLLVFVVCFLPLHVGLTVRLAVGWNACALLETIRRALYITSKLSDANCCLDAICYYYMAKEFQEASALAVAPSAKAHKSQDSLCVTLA
# Sequence of Nucleotide-binding oligomerization domain-containing protein 2 (Q9HC29 whole entry, the tested form may be a part): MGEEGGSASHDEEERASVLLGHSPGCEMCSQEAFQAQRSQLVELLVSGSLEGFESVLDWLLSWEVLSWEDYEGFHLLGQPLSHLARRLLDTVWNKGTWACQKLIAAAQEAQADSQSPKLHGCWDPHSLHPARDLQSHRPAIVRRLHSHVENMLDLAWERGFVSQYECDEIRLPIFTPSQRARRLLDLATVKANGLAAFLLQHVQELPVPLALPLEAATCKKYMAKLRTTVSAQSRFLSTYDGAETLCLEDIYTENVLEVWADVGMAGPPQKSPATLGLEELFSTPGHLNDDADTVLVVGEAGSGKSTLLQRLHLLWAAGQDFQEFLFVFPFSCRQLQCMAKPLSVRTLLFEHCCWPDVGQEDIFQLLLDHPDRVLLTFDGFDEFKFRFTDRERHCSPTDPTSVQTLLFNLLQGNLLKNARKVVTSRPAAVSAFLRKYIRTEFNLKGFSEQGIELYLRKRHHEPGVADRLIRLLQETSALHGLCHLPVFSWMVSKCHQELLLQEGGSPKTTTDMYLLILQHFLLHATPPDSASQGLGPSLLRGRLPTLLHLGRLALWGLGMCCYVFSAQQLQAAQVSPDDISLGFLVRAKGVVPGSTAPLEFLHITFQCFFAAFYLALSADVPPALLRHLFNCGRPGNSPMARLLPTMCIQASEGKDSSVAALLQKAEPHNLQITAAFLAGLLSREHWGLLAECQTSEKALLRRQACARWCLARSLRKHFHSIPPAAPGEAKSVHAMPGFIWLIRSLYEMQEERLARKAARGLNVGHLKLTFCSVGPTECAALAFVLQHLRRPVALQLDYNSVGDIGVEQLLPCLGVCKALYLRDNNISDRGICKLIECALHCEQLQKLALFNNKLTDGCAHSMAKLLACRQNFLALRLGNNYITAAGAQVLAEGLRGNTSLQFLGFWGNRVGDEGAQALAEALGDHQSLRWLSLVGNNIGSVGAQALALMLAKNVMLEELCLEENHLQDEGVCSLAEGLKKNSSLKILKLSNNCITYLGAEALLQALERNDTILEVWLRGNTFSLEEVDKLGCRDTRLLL
# Sequence of Ion channel NompC (Q7T1G6 whole entry): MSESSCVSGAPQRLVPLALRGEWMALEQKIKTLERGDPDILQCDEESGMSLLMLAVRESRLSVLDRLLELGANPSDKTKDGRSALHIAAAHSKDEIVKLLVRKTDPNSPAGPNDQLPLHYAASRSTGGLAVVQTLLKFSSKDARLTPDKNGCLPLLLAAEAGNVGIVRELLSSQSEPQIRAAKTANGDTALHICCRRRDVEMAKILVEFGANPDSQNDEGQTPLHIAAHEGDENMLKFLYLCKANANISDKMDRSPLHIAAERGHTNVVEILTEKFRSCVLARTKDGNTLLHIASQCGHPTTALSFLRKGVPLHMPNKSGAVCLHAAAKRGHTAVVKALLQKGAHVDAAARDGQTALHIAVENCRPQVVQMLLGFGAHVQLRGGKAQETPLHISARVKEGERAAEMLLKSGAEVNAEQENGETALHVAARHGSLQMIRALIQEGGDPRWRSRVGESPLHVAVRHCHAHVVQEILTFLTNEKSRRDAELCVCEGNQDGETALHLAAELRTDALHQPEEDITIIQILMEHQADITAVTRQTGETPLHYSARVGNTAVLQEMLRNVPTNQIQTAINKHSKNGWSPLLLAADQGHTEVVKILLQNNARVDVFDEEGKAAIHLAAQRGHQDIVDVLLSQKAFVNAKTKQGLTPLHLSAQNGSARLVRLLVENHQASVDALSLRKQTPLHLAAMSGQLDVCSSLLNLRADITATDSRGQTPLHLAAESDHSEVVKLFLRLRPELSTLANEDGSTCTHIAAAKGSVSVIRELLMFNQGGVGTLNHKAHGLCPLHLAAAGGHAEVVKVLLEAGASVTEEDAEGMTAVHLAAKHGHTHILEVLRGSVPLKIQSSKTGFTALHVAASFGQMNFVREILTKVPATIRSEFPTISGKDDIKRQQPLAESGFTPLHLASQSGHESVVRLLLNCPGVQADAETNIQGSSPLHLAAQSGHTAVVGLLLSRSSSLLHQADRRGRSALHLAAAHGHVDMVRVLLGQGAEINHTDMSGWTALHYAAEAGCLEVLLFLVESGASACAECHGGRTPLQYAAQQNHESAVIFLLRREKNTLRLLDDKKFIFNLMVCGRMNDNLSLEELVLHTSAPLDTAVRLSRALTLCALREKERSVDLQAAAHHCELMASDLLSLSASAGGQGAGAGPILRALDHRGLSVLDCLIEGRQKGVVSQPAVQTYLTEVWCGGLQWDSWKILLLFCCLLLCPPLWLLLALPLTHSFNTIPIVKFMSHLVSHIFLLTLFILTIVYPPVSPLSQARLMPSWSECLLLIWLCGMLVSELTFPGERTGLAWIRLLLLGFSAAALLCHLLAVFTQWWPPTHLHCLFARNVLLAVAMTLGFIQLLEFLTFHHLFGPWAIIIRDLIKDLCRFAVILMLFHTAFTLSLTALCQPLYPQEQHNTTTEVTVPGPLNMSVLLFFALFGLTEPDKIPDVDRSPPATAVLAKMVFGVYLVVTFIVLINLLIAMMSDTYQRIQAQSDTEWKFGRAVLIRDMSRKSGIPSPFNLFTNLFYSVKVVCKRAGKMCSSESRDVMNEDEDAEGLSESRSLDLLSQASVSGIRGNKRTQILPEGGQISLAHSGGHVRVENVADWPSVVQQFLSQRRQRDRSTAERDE
structure (smiles),measurement,setting,value
Cc1ccc(C(O)(c2ccccc2)c2ccccc2C(C)N(C)C)c(C)c1 (centres undefined),IC50,[1],0.799 µM (active)
same,AC50,[2],30.5 µM (active)
same,AC50,[3],39 µM (active)
same,AC50,[4],20.1 µM (active)
same,AC50,[5],19.6 µM (active)
CC12CCC(C/C1=N\NC1=NC(=O)/C(=C\c3ccc(Cl)cc3)S1)C2(C)C (centres undefined),EC50,[6],1.18 µM (active)
same,EC50,[7],1.2 µM (active)
same,EC50,Streptococcus,2.34 µM (active)
same,AC50,[8],2.16 µM (active)
same,IC50,[9],13.9 µM (inactive)
COC(=O)c1ccc(NC(=O)c2ccccc2NS(=O)(=O)c2ccccc2)cc1,IC50,[10],> 20 µM (inactive)
same,IC50,HEK293 [11],> 20 µM (inactive)
same,IC50,HEK293 [12],> 20 µM (inactive)
same,EC50,HEK293 [13],2.34 µM (active)
same,IC50,HEK293 [14],7.55 µM (active)
same,EC50,Mucolipin-3,> 29.9 µM (not active)
same,EC50,[15],6.09 µM (active)
same,EC50,Ion channel NompC,> 29.9 µM (inactive)
same,IC50,HEK293 [16],12.9 µM (active)
same,IC50,[17],0.506 µM (active)
same,EC50,[18],> 53 µM (inactive)
COc1cccc(/C=N/n2c(S)nnc2-c2[nH]nc3c2CCC3)c1OC,IC50,[19],> 100 µM (inactive)
same,IC50,[20],3.45 µM (active)
NC(=O)c1cc(-c2ccccc2)nc(N2CCOCC2)n1,IC50,[1],7.26 µM (active)
C=CCn1c(-c2cccc(Cl)c2)n[nH]c1=S,IC50,[19],> 100 µM (inactive)
same,IC50,[20],6.21 µM (active)
CCN(C(=O)COC(=O)c1ccc([N+](=O)[O-])o1)C1CCCCC1,AC50,[21],> 20 µM (inactive)
same,AC50,HeLa,> 350 µM (inactive)
same,AC50,Caspase-6,34.1 µM (active)
